Among the data in patent publication US9637483B2, “Heterocyclic compound” (TAKEDA PHARMACEUTICAL COMPANY LIMITED, priority 2013, dated 2017) are inhibition values, retold here.

Format in all cases: biochemical
The target in assay [1] is T1, JAK1 (Homo sapiens, UniProt P23458).
T1 construct: purchased Invitrogen
Kind of assay: JAK1 enzyme inhibition test (LANCE method). To be noted: 1 μM test compound; read-out: JAK1 enzyme inhibitory activity (%, 1 μM). Here is the method: (§1) JAK1 enzyme inhibitory activity of test compounds was measured by the LANCE method (PerkinElmer). First, a test compound diluted with assay buffer (50 mM HEPES (pH 7.5), 10 mM MgCl2, 1 mM EGTA, 2 mM DTT, 0.01% Tween20, 0.01% BSA) was added to a 384-well plate by 2 μL each. Then, a JAK1 (Invitrogen) solution and a fluorescence-labeled peptide substrate (ULight-JAK1, PerkinElmer) solution diluted with assay buffer to 187.5 ng/mL and 300 nM, respectively, were added by 2 μL each. Then, an enzyme reaction was started by adding 2 μL each of ATP solution prepared with assay buffer to 150 μM. After the reaction at room temperature for 1 hr, Detection Buffer (PerkinElmer) prepared to contain 20 mM EDTA, 4 nM europium-labeled anti-phosphotyrosine antibody (PerkinElmer) was added by 6 μL each. After standing at room temperature for 1 hr, fluorescence intensity (excitation wavelength 340 nm, fluorescence wavelength 665 nm, delay time 100 microseconds) was measured by a plate reader, Envision (PerkinElmer). The inhibitory activity of each compound was calculated as a relative activity value to the fluorescence intensity of a well free of enzyme as 100% inhibition.
In general terms: In TR-FRET formats the signal depends on donor and acceptor labels being close together.

For assay [2], the target named is T2, JAK2 (Homo sapiens, UniProt O60674).
T2 construct: purchased Invitrogen
T2 sequence (O60674 whole entry): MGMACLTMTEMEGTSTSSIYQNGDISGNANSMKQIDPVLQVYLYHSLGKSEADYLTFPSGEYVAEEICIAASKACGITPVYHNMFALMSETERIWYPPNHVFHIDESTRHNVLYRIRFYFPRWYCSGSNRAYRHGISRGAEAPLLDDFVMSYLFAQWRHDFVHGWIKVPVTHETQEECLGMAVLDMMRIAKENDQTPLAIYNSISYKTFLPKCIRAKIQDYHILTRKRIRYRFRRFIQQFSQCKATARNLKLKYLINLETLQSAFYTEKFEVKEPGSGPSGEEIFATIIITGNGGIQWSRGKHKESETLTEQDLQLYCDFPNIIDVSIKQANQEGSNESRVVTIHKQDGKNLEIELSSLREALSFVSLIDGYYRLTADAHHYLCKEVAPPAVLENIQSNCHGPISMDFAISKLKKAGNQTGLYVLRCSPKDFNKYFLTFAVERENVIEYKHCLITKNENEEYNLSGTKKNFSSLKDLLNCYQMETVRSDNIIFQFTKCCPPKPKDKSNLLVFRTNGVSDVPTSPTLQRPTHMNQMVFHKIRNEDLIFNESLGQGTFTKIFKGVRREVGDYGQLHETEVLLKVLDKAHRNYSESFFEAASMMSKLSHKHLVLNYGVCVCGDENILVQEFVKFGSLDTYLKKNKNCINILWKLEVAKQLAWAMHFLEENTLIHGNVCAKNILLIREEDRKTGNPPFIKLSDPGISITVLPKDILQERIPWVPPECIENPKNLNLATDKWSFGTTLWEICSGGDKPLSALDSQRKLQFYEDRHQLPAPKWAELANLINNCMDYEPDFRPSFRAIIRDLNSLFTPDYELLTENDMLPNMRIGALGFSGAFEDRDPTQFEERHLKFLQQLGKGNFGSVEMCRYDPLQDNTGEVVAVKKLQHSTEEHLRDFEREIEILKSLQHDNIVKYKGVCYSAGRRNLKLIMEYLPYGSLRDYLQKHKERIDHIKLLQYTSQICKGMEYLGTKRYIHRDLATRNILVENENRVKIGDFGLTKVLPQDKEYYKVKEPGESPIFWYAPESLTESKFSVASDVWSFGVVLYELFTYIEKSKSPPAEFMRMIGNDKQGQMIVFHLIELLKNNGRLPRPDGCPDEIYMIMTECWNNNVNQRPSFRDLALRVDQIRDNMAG
Kind of assay: JAK2 enzyme inhibition test (LANCE method). To be noted: 1 μM test compound; read-out: JAK2 enzyme inhibitory activity (%, 1 μM). Here is the method: as §1, with “JAK2 enzyme” for “JAK1 enzyme”, “a JAK2” for “a JAK1”, “to 6” for “to 187.5”, “to 45” for “to 150”

For assay [3], the target named is T3, TYK2 (Homo sapiens, UniProt P29597).
T3 construct: purchased Invitrogen
T3 sequence (P29597 whole entry): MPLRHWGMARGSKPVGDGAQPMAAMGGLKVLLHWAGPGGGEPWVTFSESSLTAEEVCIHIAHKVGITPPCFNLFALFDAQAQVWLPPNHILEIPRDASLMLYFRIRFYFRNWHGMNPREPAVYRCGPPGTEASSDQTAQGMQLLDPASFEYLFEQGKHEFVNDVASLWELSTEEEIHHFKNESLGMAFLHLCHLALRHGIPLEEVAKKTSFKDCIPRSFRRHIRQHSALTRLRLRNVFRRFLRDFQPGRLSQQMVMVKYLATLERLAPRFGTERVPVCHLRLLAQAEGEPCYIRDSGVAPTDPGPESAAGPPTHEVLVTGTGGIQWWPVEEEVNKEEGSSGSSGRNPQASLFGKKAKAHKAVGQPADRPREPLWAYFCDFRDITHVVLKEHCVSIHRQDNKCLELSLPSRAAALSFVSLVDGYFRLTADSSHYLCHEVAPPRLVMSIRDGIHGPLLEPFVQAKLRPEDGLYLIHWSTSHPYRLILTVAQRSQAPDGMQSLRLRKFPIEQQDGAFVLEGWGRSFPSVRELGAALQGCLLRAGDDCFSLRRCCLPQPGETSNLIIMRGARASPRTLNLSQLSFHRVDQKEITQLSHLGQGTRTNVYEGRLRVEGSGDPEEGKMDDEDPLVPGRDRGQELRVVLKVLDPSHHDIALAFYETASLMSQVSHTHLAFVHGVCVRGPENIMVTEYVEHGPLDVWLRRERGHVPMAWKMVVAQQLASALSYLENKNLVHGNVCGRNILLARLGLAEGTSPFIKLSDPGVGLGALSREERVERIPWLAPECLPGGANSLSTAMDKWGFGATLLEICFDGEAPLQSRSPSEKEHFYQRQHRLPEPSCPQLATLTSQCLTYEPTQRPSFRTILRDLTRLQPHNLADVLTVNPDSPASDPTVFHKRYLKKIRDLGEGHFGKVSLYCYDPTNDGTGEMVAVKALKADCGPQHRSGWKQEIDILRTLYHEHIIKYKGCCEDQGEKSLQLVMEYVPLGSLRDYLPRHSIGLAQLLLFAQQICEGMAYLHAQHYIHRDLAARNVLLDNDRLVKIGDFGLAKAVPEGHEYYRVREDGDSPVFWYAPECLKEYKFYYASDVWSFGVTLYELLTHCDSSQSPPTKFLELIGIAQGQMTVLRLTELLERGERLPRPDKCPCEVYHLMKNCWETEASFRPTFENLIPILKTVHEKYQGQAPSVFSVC
Put plainly: TYK2 enzyme inhibition test (LANCE method). To be noted: 1 μM test compound; read-out: TYK2 enzyme inhibitory activity (%, 1 μM). Here is the method:
as §1, with “TYK2 enzyme” for “JAK1 enzyme”, “a TYK2” for “a JAK1”, “to 375” for “to 187.5”, “to 30” for “to 150”

Assay [4] has as its target T4, JAK3 (Homo sapiens, UniProt P52333).
T4 construct: purchased Invitrogen
T4 sequence (P52333 1-1124): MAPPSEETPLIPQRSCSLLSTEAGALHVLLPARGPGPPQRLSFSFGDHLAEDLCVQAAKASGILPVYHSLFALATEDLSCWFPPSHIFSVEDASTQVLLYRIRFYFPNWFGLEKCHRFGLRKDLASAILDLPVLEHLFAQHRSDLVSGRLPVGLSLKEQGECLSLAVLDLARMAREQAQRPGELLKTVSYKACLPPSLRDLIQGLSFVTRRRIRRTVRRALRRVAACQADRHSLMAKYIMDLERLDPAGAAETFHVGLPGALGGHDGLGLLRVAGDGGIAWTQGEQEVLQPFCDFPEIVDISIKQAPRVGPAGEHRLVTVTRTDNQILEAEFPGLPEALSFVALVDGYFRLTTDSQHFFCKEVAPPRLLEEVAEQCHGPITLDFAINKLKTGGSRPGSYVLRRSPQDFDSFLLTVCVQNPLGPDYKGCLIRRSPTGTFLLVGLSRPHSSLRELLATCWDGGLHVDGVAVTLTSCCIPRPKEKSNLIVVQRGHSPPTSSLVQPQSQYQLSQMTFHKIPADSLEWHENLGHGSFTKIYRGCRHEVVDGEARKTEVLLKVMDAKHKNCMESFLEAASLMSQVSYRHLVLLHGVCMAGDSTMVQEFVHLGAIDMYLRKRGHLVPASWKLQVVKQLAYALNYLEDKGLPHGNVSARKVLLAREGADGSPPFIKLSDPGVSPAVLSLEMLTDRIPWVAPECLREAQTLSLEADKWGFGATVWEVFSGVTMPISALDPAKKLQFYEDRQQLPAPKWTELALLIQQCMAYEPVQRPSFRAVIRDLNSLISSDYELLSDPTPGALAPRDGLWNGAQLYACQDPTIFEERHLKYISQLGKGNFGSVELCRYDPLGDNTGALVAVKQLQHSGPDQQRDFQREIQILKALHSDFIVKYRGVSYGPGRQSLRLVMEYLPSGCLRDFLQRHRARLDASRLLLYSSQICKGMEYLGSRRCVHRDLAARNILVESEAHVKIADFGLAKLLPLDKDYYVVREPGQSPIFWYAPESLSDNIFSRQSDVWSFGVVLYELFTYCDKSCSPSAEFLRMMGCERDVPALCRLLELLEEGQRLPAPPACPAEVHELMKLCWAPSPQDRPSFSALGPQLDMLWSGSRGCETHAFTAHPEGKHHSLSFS
Put plainly: JAK3 enzyme inhibition test (LANCE method). To be noted: 1 μM test compound; read-out: JAK3 enzyme inhibitory activity (%, 1 μM). The procedure:
as §1, with “JAK3 enzyme” for “JAK1 enzyme”, “a JAK3” for “a JAK1”, “to 12” for “to 187.5”, “to 15” for “to 150”

T1 sequence (P23458 whole entry): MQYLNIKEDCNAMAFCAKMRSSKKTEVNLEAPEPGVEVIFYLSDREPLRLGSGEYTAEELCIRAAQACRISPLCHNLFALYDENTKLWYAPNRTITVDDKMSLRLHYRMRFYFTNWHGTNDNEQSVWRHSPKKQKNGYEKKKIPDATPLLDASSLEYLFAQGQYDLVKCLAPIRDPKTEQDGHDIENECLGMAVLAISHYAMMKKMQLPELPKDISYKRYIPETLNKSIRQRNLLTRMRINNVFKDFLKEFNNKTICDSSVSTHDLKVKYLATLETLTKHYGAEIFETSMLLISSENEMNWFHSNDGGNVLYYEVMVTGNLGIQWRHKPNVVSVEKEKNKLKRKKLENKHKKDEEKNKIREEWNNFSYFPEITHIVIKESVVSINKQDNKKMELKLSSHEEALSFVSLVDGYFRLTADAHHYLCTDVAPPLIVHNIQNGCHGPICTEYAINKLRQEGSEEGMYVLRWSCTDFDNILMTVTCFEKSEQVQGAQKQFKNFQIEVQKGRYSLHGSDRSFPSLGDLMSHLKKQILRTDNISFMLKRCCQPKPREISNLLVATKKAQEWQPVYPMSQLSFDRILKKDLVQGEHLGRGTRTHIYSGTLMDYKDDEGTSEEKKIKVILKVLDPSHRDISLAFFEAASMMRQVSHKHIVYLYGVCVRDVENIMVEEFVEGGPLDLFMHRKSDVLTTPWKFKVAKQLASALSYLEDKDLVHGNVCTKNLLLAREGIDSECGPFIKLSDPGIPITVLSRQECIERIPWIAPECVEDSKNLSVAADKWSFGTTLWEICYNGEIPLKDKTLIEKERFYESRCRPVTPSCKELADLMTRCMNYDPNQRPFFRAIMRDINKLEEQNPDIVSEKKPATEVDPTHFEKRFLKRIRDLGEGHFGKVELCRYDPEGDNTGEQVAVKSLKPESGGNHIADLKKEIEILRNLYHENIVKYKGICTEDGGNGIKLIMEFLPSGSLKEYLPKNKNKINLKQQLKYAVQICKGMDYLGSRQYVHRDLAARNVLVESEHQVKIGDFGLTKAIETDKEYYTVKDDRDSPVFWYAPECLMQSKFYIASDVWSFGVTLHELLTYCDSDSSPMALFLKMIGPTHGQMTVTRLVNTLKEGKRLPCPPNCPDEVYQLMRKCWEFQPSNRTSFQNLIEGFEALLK

Regarding `CC(C)[C@H](C)n1cc(-c2cc(N3CCN(S(=O)(=O)C4CC4)CC3)n(C)n2)c2[nH]nc(N)c2c1=O` [Example 107, 3-amino-7-(5-(4-(cyclopropylsulfonyl)piperazin-1-yl)-1-methyl-1H-pyrazol-3-yl)-5-((2S)-3-methylbutan-2-yl)-1,5-dihydro-4H-pyrazolo[4,3-c]pyridin-4-one], the inhibition at 1 µM in assay [1] turned out to be 97%; in assay [2], 98%; in assay [3], 100%; in assay [4], 99%.

As to `CC(C)[C@H](C)n1cc(-c2cc(C(=O)N3CCS(=O)(=O)CC3)n(C)n2)c2[nH]nc(N)c2c1=O` [Example 45, 3-amino-7-(5-((1,1-dioxidothiomorpholin-4-yl)carbonyl)-1-methyl-1H-pyrazol-3-yl)-5-((2S)-3-methylbutan-2-yl)-1,5-dihydro-4H-pyrazolo[4,3-c]pyridin-4-one], the inhibition at 1 µM in assay [1] was 98%; in assay [2], 99%; in assay [3] it was 100%; in assay [4], 99%.

Consider `CO[C@@H]1CCN(c2cc(-c3cn(C(C4CC4)C4CC4)c(=O)c4c(N)n[nH]c34)nn2C)C1` [Example 164, 3-amino-5-(dicyclopropylmethyl)-7-(5-((3R)-3-methoxypyrrolidin-1-yl)-1-methyl-1H-pyrazol-3-yl)-1,5-dihydro-4H-pyrazolo[4,3-c]pyridin-4-one], for which the inhibition at 1 µM in assay [1] stood at 99%; in assay [2] it was 99%; in assay [3] it was 101%; in assay [4], 100%.

As for `Cn1nc(-c2cn(-c3c(F)cccc3C#N)c(=O)c3c(N)n[nH]c23)cc1N1CCOCC1` [Example 67, 2-(3-amino-7-(1-methyl-5-(morpholin-4-yl)-1H-pyrazol-3-yl)-4-oxo-1,4-dihydro-5H-pyrazolo[4,3-c]pyridin-5-yl)-3-fluorobenzonitrile], the inhibition at 1 µM in assay [1] worked out at 98%; in assay [2], 97%; in assay [3], 100%; in assay [4] it was 99%.

For the compound `Cn1nc(-c2cn(C(C3CC3)C3CC3)c(=O)c3c(N)n[nH]c23)cc1N1CCN2CCC[C@H]2C1` [Example 162, 3-amino-5-(dicyclopropylmethyl)-7-(5-((8aS)-hexahydropyrrolo[1,2-a]pyrazin-2(1H)-yl)-1-methyl-1H-pyrazol-3-yl)-1,5-dihydro-4H-pyrazolo[4,3-c]pyridin-4-one], the inhibition at 1 µM in assay [1] stood at 99%; in assay [2], 100%; in assay [3], 101%; in assay [4] it was 100%.

With `COCCN(C)C(=O)c1cc(-c2cn([C@@H](C)C(C)C)c(=O)c3c(N)n[nH]c23)nn1C` [Example 46, 3-(3-amino-5-((2S)-3-methylbutan-2-yl)-4-oxo-4,5-dihydro-1H-pyrazolo[4,3-c]pyridin-7-yl)-N-(2-methoxyethyl)-N,1-dimethyl-1H-pyrazole-5-carboxamide], the inhibition at 1 µM in assay [1] stood at 95%; in assay [2] it was 98%; in assay [3], 99%; in assay [4] it was 99%.

For `CC(C)[C@H](C)n1cc(-c2cc(N3CCCCC3)n(C)n2)c2[nH]nc(N)c2c1=O` [Example 19, 3-amino-5-((2S)-3-methylbutan-2-yl)-7-(1-methyl-5-(piperidin-1-yl)-1H-pyrazol-3-yl)-1,5-dihydro-4H-pyrazolo[4,3-c]pyridin-4-one], the inhibition at 1 µM in assay [1] came to 98%; in assay [2] it was 98%; in assay [3], 99%; in assay [4], 99%.

As to `CC(C)[C@H](C)n1cc(-c2cc(C(=O)N(C)C3CCOCC3)n(C)n2)c2[nH]nc(N)c2c1=O` [Example 53, 3-(3-amino-5-((2S)-3-methylbutan-2-yl)-4-oxo-4,5-dihydro-1H-pyrazolo[4,3-c]pyridin-7-yl)-N,1-dimethyl-N-(tetrahydro-2H-pyran-4-yl)-1H-pyrazole-5-carboxamide], the inhibition at 1 µM was determined as 95% in assay [1], 96% in assay [2], 98% in assay [3] and 99% in assay [4].

Regarding `CC(C)C(C(N)=O)n1cc(-c2cc(N3CCOCC3)n(C)n2)c2[nH]nc(N)c2c1=O` (stereo not drawn) [Example 85, 2-(3-amino-7-(1-methyl-5-(morpholin-4-yl)-1H-pyrazol-3-yl)-4-oxo-1,4-dihydro-5H-pyrazolo[4,3-c]pyridin-5-yl)-3-methylbutanamide], the inhibition at 1 µM was determined as 68% in assay [1], 86% in assay [2], 89% in assay [3] and 89% in assay [4].
